Results reported in patent publication US7261901B2, “Vaccine and compositions for the prevention and treatment of neisserial infections” (University of Iowa Research Foundation, priority 2001, dated 2007).

Key:
gonococci = conditions: 1.0, 0.1, or 0.01 percent alcohol, absence of cervical cells (data not shown)
Description: Consequently, it was determined if exogenously added PLD substrates could compete with cervical cell constituents for NgPLD activity and in doing so interfere with the role of NgPLD in gonococcal invasion.

Ectocervical Cells = assay: Association and invasion (gentimicin-resistance) assays, primary ectocervical (pex) cells; format: cell-based, human
Description: (§1) 8. N. gonorrhoeae Attachment to and Invasion of Primary, Human, Cervical Cells. Primary cervical cell monolayers were infected with wild-type or PLD mutant gonococci as outlined above. Variable concentrations of Streptomyces spp. PLD (SsPLD) (Sigma), PMA, or 4-α phorbol were included in association (adherence and invasion) or invasion assays, as noted. Cervical cells were preincubated (30 minutes, 37° C.) with 200 nM PMA or 4-α phorbol before the addition of gonococci. 10 units ml^−1 SsPLD was added simultaneously with gonococci. Alternatively, where noted, cervical cell monolayers were pre-incubated (30 minutes, 37° C.) with pervanadate, which was made by mixing 100 μM ortho-sodium vanadate in 3 mM hydrogen peroxide. In separate assays, infection supernatants were collected from wild-type or PLD mutant-infected cervical cell monolayers, gonococci were removed by filtration through a 0.22 μm syringe filter (i.e., wild-type or mutant primed supernatants) and were added to association and/or invasion assays, as noted. The ability of gonococci to adhere to and/or invade pex and pen cells was quantitatively determined using standard gentimicin-resistance assays, performed as described previously (Edwards et al., 2000), and in which chemical or protein additives were included or excluded from the invasion assay as described above. The total association (i.e., adherence and invasion) of gonococci with pex and pen cells was quantitated by the omission of gentimicin from the above described invasion assay. Percent invasion of N. gonorrhoeae 1291 or 1291ΔPLDin the presence or absence of experimental additives was determined as a function of the original inoculum and the number of colonies formed with subsequent plating of the cellular lysate. A Kruskal-Wallis non-parametric analysis of variance was used to determine the statistical significance of the association and invasion assays described above.
N. gonorrhoeae Attachment to and Invasion of Primary, Human, Cervical Cells. Primary cervical cell monolayers were infected with wild-type or PLD mutant gonococci as outlined above. Variable concentrations of PtC (Sigma), ethanol, 2-butanol, or Streptomyces spp. PLD (SsPLD) (Sigma) were included in association (adherence and invasion) or invasion assays, as noted. PtC, ethanol, 2-butanol, or 10 units ml^−1 SsPLD were added simultaneously with gonococci. In separate assays, infection supernatants were collected from wild-type or PLD mutant-infected cervical cell monolayers, gonococci were removed by filtration through a 0.22 μm syringe filter (to yield primed wild-type or mutant supernatants), which were then added to association and/or invasion assays, as noted. The ability of gonococci to adhere to and/or invade pex and pen cells was quantitatively determined using standard gentimicin-resistance assays, performed as described previously (Edwards et al., 2000) and in which chemical or protein additives were included or excluded from the invasion assay as described above. The total association (i.e., adherence and invasion) of gonococci with pex and pen cells was quantitated by the omission of gentimicin from the above described invasion assay. Percent invasion of N. gonorrhoeae 1291 or 1291ΔPLD in the presence or absence of experimental additives was determined as a function of the original inoculum and the number of colonies formed with subsequent plating of the cellular lysate. Inhibition of gonococcal attachment and/or invasion by exogenous PtC, ethanol, or 2-butanol was determined as a normalized function of the ability of gonococci to attach to and/or invade primary cervical cells in the absence of the competimer inhibitor. A Kruskal-Wallis non-parametric analysis of variance was used to determine the statistical significance of the association and invasion assays described above.

Endocervical Cells = assay: Association and invasion (gentimicin-resistance) assays, primary endocervical (pen) cells; format: cell-based, human; conditions: 1291 + 100 nM DPG
Description: as §1, with “Alternatively, where noted, cervical cell monolayers were pre-incubated (30 minutes, 37° C.) with pervanadate, which was made by mixing 100 μM ortho-sodium vanadate in 3 mM hydrogen peroxide. In separate assays, infection supernatants were collected from wild-type or PLD mutant-infected cervical cell monolayers, gonococci were removed by filtration through a 0.22 μm syringe filter (i.e., wild-type or mutant primed supernatants) and were added to association and/or invasion assays, as noted.” left out, “A Kruskal-Wallis non-parametric analysis of variance was used to determine the statistical significance of the association and invasion assays described above.” left out

primary cervical cells = assay: Association and invasion assays, primary cervical cells (cell type not specified); format: cell-based, human; conditions: for intracellular survival of PLD mutant gonococci: 100 μM pervanadate or 200 nM PMA
Description: The anti-PLD antibody was screened for specificity to PLD using assays well-known to the art.
as §1

PLD = PLD activity (Amplex Red Phospholipase D Assay Kit) in gonococci, infected cervical cell lysates, fractions and supernatants; format: biochemical, N. gonorrhoeae
Description: (§2) 4. Determination of PLD Activity. PLD activity was accessed using the Amplex™ Red Phospholipase D Assay Kit (Molecular Probes, Eugene Oreg.). Wild-type and PLD mutant gonococci were suspended in PLD assay buffer to a final concentration of 10^7 bacteria ml^−1, and activity was determined according to the manufacturer's protocol. Assessment of PLD activity at acidic pH was determined in a two-step assay according to the manufacturer's protocol. For the first step, 10^8 gonococci were suspended in PBS with the pH adjusted to 3.0, 4.5, or 6.0. Gonococcal suspensions were diluted 10-fold in PLD assay buffer for the second step of the reaction. Cervical cell fractions were prepared as outlined below and PLD activity was assessed at neutral pH according to the manufacturer's protocol.
5. Fractionation of Primary Cervical Cells. Uninfected (control) and infected cervical cell monolayers were lysed in buffer A (50 mM tris, pH 7.5; 10 mM NaCl, 1 mM KCl; 2 mM MgCl2, 1 mM PMSF) by scraping cervical cells from tissue culture dishes placed on ice. The cell lysate was sonicated (two bursts of 20 seconds each). Cell debris and the nuclear fraction was removed by centrifugation (750×g, 10 minutes), and the supernatant from this spin was then subjected to filtration through a low-protein binding 0.22 μm syringe filter to ensure removal of gonococci. Alternatively, gonococci were removed by immunoprecipitation (as described by Wen et al., 2000) using the monoclonal antibody, 2C3, which recognizes the H.8 outer membrane protein of the pathogenic Neisseria. Sucrose was added to the resulting gonococcus-depleted supernatant (S1) to a final concentration of 300 mM. Ultracentrifugation (150,000×g, 90 minutes) was then performed to produce the plasma membrane-(pellet) and cytosol (supernatant 2, S2)-enriched fractions. The membrane-enriched fraction was resuspended in PLD assay buffer (50 mM Tris, 5 mM CaCl2, pH 8.0). S2 was concentrated by filtration through Centricon YM-30 centrifugal filter units (Millipore) after which cytosolic constituents were recovered in PLD assay buffer. Where indicated, prior to infection studies primary pex and pen cell monolayers were treated with 300 nM wortmannin (Sigma) (2 hours, 37° C.) or 1 μM cytochalasin D (Sigma) (30 minutes, 37° C.) to inhibit macropinocytosis of gonococci. Wortmannin and cytochalasin D were maintained in cervical cell cultures during the course of infection.
as §2, with “Determination of” for “4. Determination of”, “Assessment of gonococcal PLD activity” for “Assessment of PLD activity”
Fractionation of Primary Cervical Cells. Uninfected (control) and infected cervical cell monolayers were lysed in buffer A (50 mM tris, pH 7.5; 10 mM NaCl, 1 mM KCl; 2 mM MgCl2, 1 mM PMSF) by scraping cervical cells from tissue culture dishes placed on ice. The cell lysate was sonicated (two bursts of 20 seconds each). […] Sucrose was added to the resulting gonococcus-depleted supernatant (S1) to a final concentration of 300 mM. Ultracentrifugation (150,000×g, 90 minutes) was then performed to produce the plasma membrane-(pellet) and cytosol (supernatant 2, S2)-enriched fractions. The membrane-enriched fraction was resuspended in PLD assay buffer (50 mM Tris, 5 mM CaCl2, pH 8.0). […]

CR3 = CR3 surface expression on primary cervical cells (ELISA with H5A4); format: cell-based, human; conditions: for CR3 recruitment to the cervical cell surface: PLD mutant infected cells, 100 μM pervanadate or 200 nM PMA; for CR3 surface level expression: uninfected cervical cells
Description: As described hereinbelow, primary cervical cells were seeded in 96-well microtiter plates to comparatively quantitate surface level expression of CR3. In the procedure, cells were (i) uninfected; (ii) challenged with wild-type gonococci; (iii) challenged with PLD-mutant gonococci; and/or (iv) challenged with filtered, primed (see infra) wild-type or PLD-mutant gonococcal supernatants. After removal of the infection supernatant, cell monolayers were rinsed, fixed and subsequently labeled with an antibody (anti-CD11b antibody H5A4; Hildreth and August, 1985) specific for the CR3 I-domain subunit followed by an HRP antibody-conjugate (commercially available from Kirkegaard & Perry Laboratories, Gaithersburg, Md.) using standard ELISA protocols. Absorbance of the o-phenylenediamine dihydrochloride peroxidase substrate was determined spectrophotometrically at 490 nm (FIG. 15).
7. Determination of CR3 Surface Expression on Primary Cervical Cells. Pex and pen cells were passed to 96-well microtiter plates and allowed to grow to confluence. Cervical cells were then challenged with wild-type or PLD mutant gonococci after which the infection medium was removed and cells were rinsed thrice with PBS. Cells were fixed with 2% paraformaldehyde. Prior to immuno-analysis of CR3 surface level expression, cells were again rinsed with PBS. Immunoassays were then performed according to standard ELISA protocols using the H5A4 anti-CD11b (i.e., CR3) primary and peroxidase-conjugated secondary antibodies. Absorbance of the o-phenylenediamine dihydrochloride peroxidase substrate was determined spectrophotometrically at 490 nm. Primary antibody was omitted from one well, and the secondary antibody was omitted from a second well, which served as a control for endogenous peroxidase activity. Where indicated 200 nM phorbol myristate (PMA), 200 nM 4-α phorbol, 100 μM pervanadate, 3 mM hydrogen peroxide, or gonococci-depleted supernatants collected from wild-type or PLD mutant infection studies were included in the infection studies as outlined below.
Determination of CR3 Surface Expression on Primary Cervical Cells. Pex and pen cells were passed to 96-well microtiter plates and allowed to grow to confluence. Cervical cells were then challenged with wild-type or PLD mutant gonococci after which the infection medium was removed and cells were rinsed thrice with PBS. Cells were fixed with 2% paraformaldehyde. Prior to immuno-analysis of CR3 surface level expression, cells were again rinsed with PBS. Immunoassays were then performed according to standard ELISA protocols using the H5A4 anti-CD11b (i.e., CR3) primary and peroxidase-conjugated secondary antibodies. Absorbance of the o-phenylenediamine dihydrochloride peroxidase substrate was determined spectrophotometrically at 495 nm. […]

[1] = 1291 WT, alcohol competimer 0.01 %
[2] = 1291 WT, alcohol competimer 0.1 %
[3] = 1291 WT, alcohol competimer 1.0 %
[4] = Ectocervical Cells, 1291 + 100 nM DPG

CCO [Ethanol, ethanol]
survival of gonococci (gonococci): no significant difference in survival
Inhibition (%) (Ectocervical Cells; [1]): 74.9582 (0.87) %
Invasion (%) (Ectocervical Cells; [1]): 0.6957 (0.02) %
Inhibition (%) (Ectocervical Cells; [2]): 80.9243 (1.41) %
Invasion (%) (Ectocervical Cells; [2]): 0.5288 (0.01) %
Invasion (%) (Ectocervical Cells; [3]): 0.2564 (0.01) %
Inhibition (%) (Ectocervical Cells; 1291 WT, alcohol competimer 1.0 %, variance in parentheses): 90.7346 (0.92) %

CCC(C)O (stereo not drawn) [2-Butanol, 2-butanol]
survival of gonococci (gonococci): no significant difference in survival
Invasion (%) (Ectocervical Cells; [1]): 2.8661 (0.53) %
Invasion (%) (Ectocervical Cells; [2]): 2.7087 (0.47) %
Invasion (%) (Ectocervical Cells; [3]): 2.6869 (0.47) %
Invasion (%) (Ectocervical Cells; 1291ΔPLD, alcohol competimer 0.01 %): 0.2819 (0.02) %
Invasion (%) (Ectocervical Cells; 1291ΔPLD, alcohol competimer 0.1 %): 0.3172 (0.03) %
Invasion (%) (Ectocervical Cells; 1291ΔPLD, alcohol competimer 1.0 %): 0.2960 (0.05) %

O=C(O)C(COP(=O)(O)O)OP(=O)(O)O (stereo not drawn) [DPG, 2,3-diphosphoglycerate]
Association, Mean (Ectocervical Cells; [4]): 15.31
Invasion, Mean (Ectocervical Cells; [4]): 0.36
Association, Mean (Endocervical Cells): 6.97
Invasion, Mean (Endocervical Cells): 0.21
effect on PLD activity, association and invasion of cervical cells by gonococci (primary cervical cells): inhibits gonococcal association and invasion

OO [H2O2, hydrogen peroxide]
PLD activity (Table 3, untitled) (PLD; No cervical cells): 0.961
Mean PLD activity, No Cells (PLD; gonococci alone and assay control (Table 7B, C)): 0.885
PLD activity, Assay Controls (Table 4C) (PLD; positive control): 0.781
PLD activity, Assay Controls, mean (PLD; positive control (Table 8A)): 1.557
effect on gonococcal association, invasion or CR3 cell surface recruitment (primary cervical cells; negative controls: 200 nM 4-α phorbol, 3 mM hydrogen peroxide): No effect was observed

CCCCCCCCCCCCCC(=O)O[C@@H]1[C@@H](C)[C@@]2(O)[C@@H](C=C(CO)C[C@]3(O)C(=O)C(C)=C[C@@H]23)[C@@H]2C(C)(C)[C@]12OC(C)=O [PMA, phorbol myristate]
intracellular survival of PLD mutant gonococci (primary cervical cells): partially restored intracellular survival
CR3 recruitment to the cervical cell surface (CR3): rescued CR3 recruitment
CR3 surface level expression (CR3): increased CR3 surface level expression

pervanadate
intracellular survival of PLD mutant gonococci (primary cervical cells): not sufficient to allow the intracellular survival
CR3 recruitment to the cervical cell surface (CR3): rescues CR3 recruitment
CR3 surface level expression (CR3): does not stimulate CR3 surface recruitment
